Where a name gives a salt, the structure may show the parent alone.
How the values were obtained:
human NTPDase1 = biological target: T1, human NTPDase1 (Homo sapiens, UniProt P49961); assay: Malachite green assay, human NTPDase1; format: biochemical; settings: 2 μM compound, 50 µM ATP, COS-7 membrane preparation; for inhibition at 2 µM: read-out: % inhibition at 2 μM concentration, NTPDase1
T1 construct: expressed in transfected cells; host or cells: COS-7 cells (membrane preparation)
T1 sequence (P49961 1-510): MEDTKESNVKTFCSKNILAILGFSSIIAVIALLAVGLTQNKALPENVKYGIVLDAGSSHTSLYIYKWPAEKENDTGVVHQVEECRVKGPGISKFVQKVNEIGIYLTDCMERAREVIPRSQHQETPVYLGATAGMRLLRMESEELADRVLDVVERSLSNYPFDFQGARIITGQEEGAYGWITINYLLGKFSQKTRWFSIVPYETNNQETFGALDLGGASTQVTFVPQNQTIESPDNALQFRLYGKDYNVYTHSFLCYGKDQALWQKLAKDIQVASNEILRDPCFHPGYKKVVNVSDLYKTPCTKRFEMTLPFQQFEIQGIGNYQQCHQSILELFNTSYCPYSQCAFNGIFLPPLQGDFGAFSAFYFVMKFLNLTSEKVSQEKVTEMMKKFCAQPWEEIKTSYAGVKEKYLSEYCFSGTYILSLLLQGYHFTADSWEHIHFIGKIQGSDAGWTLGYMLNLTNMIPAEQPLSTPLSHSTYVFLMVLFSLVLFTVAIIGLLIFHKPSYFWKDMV
Experimental: (§1) Membrane preparations expressing human NTPDase1, -2, -3, or -8, respectively, were obtained as previously described ([Sévigny et al., 1997]; [Cogan et al., 1999]; [Kukulski et al., 2005]; [Lecka et al., 2013]; [Lee et al., 2018]). Enzyme inhibition assays were performed using the malachite green assay in analogy to published procedures with some modifications ([Dou et al., 2018]). The reaction buffer contained 10 mM HEPES, 2 mM CaCl2, and 1 mM MgCl2 (pH 7.4) in a final volume of 50 μL in transparent 96-well half-area plates. The compounds were initially tested at a final concentration of 2 µM using a COS-7-cell membrane preparation expressing the appropriate NTPDase isoenzyme (protein amount: 143 ng for NTPDase1, 175 ng for NTPDase2, 152 ng for NTPDase3, and 175 ng for NTPDase8). Preincubated of the enzyme preparations was perfomred at 37°C in the presence or absence of test compounds with gentle shaking (Eppendorf Thermomixer comfort at 500 rpm) for 5 min. […] ([Kukulski et al., 2005]). After 15 min of incubation at 37°C with gentle shaking, the reaction was stopped by the addition of the detection reagents (20 µL malachite green solution, 0.6 mM, and 30 µL of ammonium molybdate solution, 20 mM, in 1.5 M sulfuric acid). The released inorganic phosphate was quantified after 20 min of gentle shaking at 25°C by measuring the absorption of the malachite green-phosphomolybdate complex at 600 nm using a BMG PheraStar FS plate reader (BMG Labtech GmbH, Ortenberg, Germany). The corrected absorption was calculated by subtracting the absorption of the negative control samples, which were incubated with previously denatured enzyme (90°C, 15 min). Full concentration-inhibition curves were determined with inhibitor concentrations ranging from 0.03 to 30 µM in the presence of 2% DMSO. Inhibition-type experiments were performed with 25, 50, 100, 150 and 200 µM ATP as substrate for NTPDase2 in the presence of inhibitor 20 (0, 0.25, 0.5, and 1 µM) and 25, 50, 100 and 150 µM ATP substrate for NTPDase3 and compound 42 (0.25, 0.5, and 1 µM). For all of the presented data, at least three independent experiments were performed, and IC50 values were calculated by GraphPad Prism 8 software.
(§2) Inhibition of human NTPDases was performed using the malachite green assay, which was established on a robotic system (Z’ factors > 0.70) ([Baykov et al., 1988]; [Fiene et al., 2015]). The malachite green assay enables the detection of the phosphate produced by the enzymatic hydrolysis of nucleotides. A fixed substrate concentration of 50 µM ATP for NTPDase1 and 100 µM for NTPDase2, -3, and -8 was employed. Test compounds were initially screened at a concentration of 2 μM. […] A total of 48 synthesized anthraquinone derivatives including 14 new compounds not previously described in the literature were evaluated for their inhibitory activity at human NTPDase1, -2, -3, and -8 (for results see Table 1).

human NTPDase2 = biological target: T2, human NTPDase2 (Homo sapiens, UniProt Q9Y5L3); assay: Malachite green assay, human NTPDase2; format: biochemical; settings: 100 µM ATP, COS-7 membrane preparation; for inhibition at 2 µM: read-out: % inhibition at 2 μM concentration, NTPDase2; for IC50: read-out: IC50 ± SEM, NTPDase2
T2 construct: expressed in transfected cells; host or cells: COS-7 cells (membrane preparation)
T2 sequence (Q9Y5L3 1-495): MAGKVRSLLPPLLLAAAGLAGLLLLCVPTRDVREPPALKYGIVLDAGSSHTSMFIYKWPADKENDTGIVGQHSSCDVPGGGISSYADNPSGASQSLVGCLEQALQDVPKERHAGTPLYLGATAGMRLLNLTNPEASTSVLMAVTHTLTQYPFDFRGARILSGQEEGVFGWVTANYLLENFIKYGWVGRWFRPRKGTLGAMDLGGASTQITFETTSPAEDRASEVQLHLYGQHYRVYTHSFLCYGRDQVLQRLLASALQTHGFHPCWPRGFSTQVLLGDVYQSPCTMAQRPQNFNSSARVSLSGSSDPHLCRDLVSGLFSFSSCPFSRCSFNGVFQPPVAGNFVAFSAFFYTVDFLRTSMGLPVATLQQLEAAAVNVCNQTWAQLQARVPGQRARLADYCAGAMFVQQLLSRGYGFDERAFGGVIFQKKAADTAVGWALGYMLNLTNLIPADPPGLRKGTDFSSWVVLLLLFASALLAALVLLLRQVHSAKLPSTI
Experimental: as §1, §2

human NTPDase3 = biological target: T3, human NTPDase3 (Homo sapiens, UniProt O75355); assay: Malachite green assay, human NTPDase3; format: biochemical; settings: for IC50 / inhibition at 2 µM: 100 µM ATP, COS-7 membrane preparation; for IC50: read-out: IC50 ± SEM, NTPDase3; for inhibition at 2 µM: 2 μM compound, read-out: % inhibition at 2 μM concentration, NTPDase3
T3 construct: expressed in transfected cells; host or cells: COS-7 cells (membrane preparation)
T3 sequence (O75355 1-529): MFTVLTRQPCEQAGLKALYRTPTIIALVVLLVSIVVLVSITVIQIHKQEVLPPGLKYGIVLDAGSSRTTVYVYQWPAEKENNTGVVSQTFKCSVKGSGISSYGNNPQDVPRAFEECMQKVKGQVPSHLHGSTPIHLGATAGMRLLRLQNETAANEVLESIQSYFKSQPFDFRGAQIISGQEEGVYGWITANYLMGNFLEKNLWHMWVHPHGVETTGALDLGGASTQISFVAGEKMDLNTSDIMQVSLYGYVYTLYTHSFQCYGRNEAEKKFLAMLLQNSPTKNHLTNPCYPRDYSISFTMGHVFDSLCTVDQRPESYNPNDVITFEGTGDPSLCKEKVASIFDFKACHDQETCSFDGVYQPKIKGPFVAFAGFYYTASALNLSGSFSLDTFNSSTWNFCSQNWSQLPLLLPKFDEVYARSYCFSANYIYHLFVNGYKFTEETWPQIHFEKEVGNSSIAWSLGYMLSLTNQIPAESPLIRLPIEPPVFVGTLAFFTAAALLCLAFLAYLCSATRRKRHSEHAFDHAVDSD
Experimental: as §1, §2

human NTPDase8 = biological target: T4, human NTPDase8 (Homo sapiens, UniProt Q5MY95); assay: Malachite green assay, human NTPDase8; format: biochemical; settings: for inhibition at 2 µM: read-out: % inhibition at 2 μM concentration, NTPDase8
T4 construct: expressed in transfected cells; host or cells: COS-7 cells (membrane preparation)
T4 sequence (Q5MY95 1-495): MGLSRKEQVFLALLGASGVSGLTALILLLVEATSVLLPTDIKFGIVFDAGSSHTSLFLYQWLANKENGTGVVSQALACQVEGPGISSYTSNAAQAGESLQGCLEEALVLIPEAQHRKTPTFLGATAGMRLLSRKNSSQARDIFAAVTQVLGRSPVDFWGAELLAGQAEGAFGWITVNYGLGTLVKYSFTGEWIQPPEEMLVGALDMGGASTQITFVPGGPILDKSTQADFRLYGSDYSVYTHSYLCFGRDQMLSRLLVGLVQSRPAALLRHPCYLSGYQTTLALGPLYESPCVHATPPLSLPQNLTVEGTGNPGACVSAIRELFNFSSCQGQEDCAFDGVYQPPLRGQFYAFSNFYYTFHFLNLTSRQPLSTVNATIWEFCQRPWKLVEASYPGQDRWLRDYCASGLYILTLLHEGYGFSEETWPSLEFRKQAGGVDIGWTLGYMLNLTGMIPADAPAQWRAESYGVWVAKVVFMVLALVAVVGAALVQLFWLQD
Experimental: as §1, §2

[1] = 2 μM compound, 100 µM ATP, COS-7 membrane preparation

SMILES	inhibition at 2 µM (human NTPDase1)	inhibition at 2 µM (human NTPDase2; 2 μM compound)	IC50 (human NTPDase3)	inhibition at 2 µM (human NTPDase8; [1])	inhibition at 2 µM (human NTPDase3)	other results
Nc1c(S(=O)(=O)O)cc(Nc2ccc(Sc3ccccc3)c(Cl)c2)c2c1C(=O)c1ccccc1C2=O (as salt: sodium) [Compound 48, Sodium 1-amino-4-(3-chloro-4-phenylsulfanyl)-phenylamino-9,10-dioxo-9,10-dihydroanthracene-2-sulfonate]						melting point: > 300 °C
Nc1c(S(=O)(=O)O)cc(Nc2ccc(S(=O)(=O)O)c(Nc3nc(Cl)nc(Cl)n3)c2)c2c1C(=O)c1ccccc1C2=O [Compound 42, 1-amino-4-[3-(4,6-dichlorotriazin-2-ylamino)-4-sulfophenylamino]-9,10-dioxo-9,10-dihydroanthracene-2-sulfonate]	-2%	10%	390 ± 41 nM	-7%		inhibition type, NTPDase3 (human NTPDase3; Hanes-Woolf plot, 25-150 µM ATP, inhibitor 0.25, 0.5, 1 µM): mixed-type
Nc1c(S(=O)(=O)O)cc(Nc2ccc(Sc3ccccc3)cc2)c2c1C(=O)c1ccccc1C2=O [Compound 44]	15%			6%	7%	IC50 (human NTPDase2): 934 ± 136 nM
O=C(O)c1cc(Nc2cc(S(=O)(=O)O)cc3c2C(=O)c2ccccc2C3=O)ccc1O [Compound 58]	1%	5%		5%	32%	
Nc1c(S(=O)(=O)O)cc(Nc2ccc(Nc3nc(Cl)nc(Nc4cccc(S(=O)(=O)O)c4)n3)c(S(=O)(=O)O)c2)c2c1C(=O)c1ccccc1C2=O [Compound 5, reactive blue-2, reference compound]			942 ± 24 nM			% inhibition at 2 μM concentration, NTPDase1 (human NTPDase1): (17) %; % inhibition at 2 μM concentration, NTPDase2 (human NTPDase2; 2 μM compound): (42) %; inhibitory activity at NTPDase8 (in words) (human NTPDase8): inactive; % inhibition at 2 μM concentration, NTPDase8 (human NTPDase8; [1]): (-8) %
Cc1ccc(C)c(Sc2ccc(Nc3cc(S(=O)(=O)O)c(N)c4c3C(=O)c3ccccc3C4=O)cc2)c1 [Compound 50]	38%			17%	34%	IC50 (human NTPDase2): 1130 ± 270 nM
Cc1cc(Nc2cccc(F)c2)c2c(c1N)C(=O)c1ccccc1C2=O [Compound 54]	-4%	7%		-2%	-2%	
Nc1c(S(=O)(=O)O)cc(NCc2ccccc2)c2c1C(=O)c1ccccc1C2=O [Compound 12]	-10%	11%		3%	6%	

Now from value to compound, other results behind:

inhibition at 2 µM (human NTPDase1)	inhibition at 2 µM (human NTPDase2; 2 μM compound)	IC50 (human NTPDase3)	inhibition at 2 µM (human NTPDase8; [1])	inhibition at 2 µM (human NTPDase3)	SMILES	other results
-1%	15%	1640 ± 260 nM	-11%		Nc1c(S(=O)(=O)O)cc(Nc2cccc3cccc(S(=O)(=O)O)c23)c2c1C(=O)c1ccccc1C2=O [Compound 17]	
10%	5%	1730 ± 550 nM	-20%		Nc1ccc(Nc2cc(S(=O)(=O)O)c(N)c3c2C(=O)c2ccccc2C3=O)cc1S(=O)(=O)O [Compound 32]	
-2%	-5%		3%	1%	Nc1c(Br)cc(Nc2cccc(C(=O)O)c2)c2c1C(=O)c1ccccc1C2=O [Compound 52]	
0%	13%	4720 ± 400 nM	-35%		Nc1c(S(=O)(=O)O)cc(Nc2ccc3cc(C(=O)O)ccc3c2)c2c1C(=O)c1ccccc1C2=O [Compound 19]	
7%			3%	3%	Nc1c(S(=O)(=O)O)cc(Nc2ccc(Cc3ccccc3)cc2)c2c1C(=O)c1ccccc1C2=O [Compound 43]	IC50 (human NTPDase2): 1320 ± 50 nM
-4%	12%	8960 ± 1080 nM	-26%		Nc1c(S(=O)(=O)O)cc(Nc2cccc(Br)c2)c2c1C(=O)c1ccccc1C2=O [Compound 22]	
36%		13100 ± 1650 nM	28%		Nc1c(S(=O)(=O)O)cc(Nc2cccc(Cc3ccccc3)c2)c2c1C(=O)c1ccccc1C2=O [Compound 39]	IC50 (human NTPDase2): 3590 ± 850 nM
-17%	2%	3100 ± 450 nM	-17%		Nc1c(S(=O)(=O)O)cc(Nc2cccc(C(=O)O)c2)c2c1C(=O)c1ccccc1C2=O [Compound 26]	

Source: PMC7481482, “Development of Anthraquinone Derivatives as Ectonucleoside Triphosphate Diphosphohydrolase (NTPDase) Inhibitors With Selectivity for NTPDase2 and NTPDase3” (Frontiers in Pharmacology, 2020)
